Patent publication US20100322861A1, “ENGINEERED CELLS, IMAGING REPORT GENE/PROBE SYSTEMS, AND METHODS OF IMAGING” (priority 2007, published 2010)

What was measured:
HSV1-tk expressing CTLs = assay: In vitro assays of Ganciclovir induced cell death of HSV1-tk expressing CTLs; format: cell-based, human; settings: previous in vitro assays
HSV1-TK = assay: Cell culture uptake assay of [3H]Penciclovir into patient CTLs versus control Jurkat cells; format: cell-based, Herpes Simplex Virus 1; settings: about 1 μCi/ml, control Jurkat cells not expressing HSV1-tk
Experimental: FIG. 5 is a bar graph that illustrates the uptake of [^3H]Penciclovir into the genetically engineered CTL clone that was infused into the patient and control Jurkat cells. The autologous patient CTLs were genetically engineered to constitutively express HSV1-tk. The control cells expressed Firefly luciferase instead of HSV1-tk. […] The symbol “*” indicates significant difference between uptake of [^3H]PCV into patient CTLs vs control cells at 4 hours (P<0.001).
The patient of the present example received a total of approximately 1×10^9 CTLs within a five-week period of direct infusions (one week break between weeks 2 and 4). It is both possible that these cells proliferate or some die once injected into the patient. The number of cells present within the tumor resection site and the intact tumor near the corpus callosum could not be specifically quantified. That would require a pharmacokinetic model ((2004) J Nucl Med 45, 1560-1570, which is incorporated herein by reference) for [^18F]FHBG at brain tumor sites and knowing HSV1-tk expression levels per CTL at imaging time. […] This low level of activity explains why [^18F]FHBG accumulation in CTL infusion sites and intact tumor is only 2-3× higher than background. In fact during uptake assay cultured cells were exposed to a relatively constant concentration of about 1 μCi/ml; whereas assuming homogeneous distribution of [^18F]FHBG in 6 liters of blood, the maximum concentration CTLs would have been exposed to within the first 1-2 minutes after injection would have been about 1 μCi/ml, but then there is a rapid decline in blood concentration of [^18F]FHBG within the first 20-40 minutes following it's injection. Despite that, [^18F]FHBG's ability to detect the CTLs may be due to the low background within the surrounding brain tissue and the presence of a large number of CTLs.

[1] = tested on: cytolytic T cells expressing IL13 zetakine and HSV1-tk genes; assay: [18F]FHBG PET imaging of infused HSV1-tk expressing CTLs in a glioma patient; format: in vivo, human
From the text: The CTLs were imaged with the PET reporter probe 9-[4-[^18F]Fluoro-3-(hydroxymethyl)butyl]guanine ([^18F]FHBG), because they constitutively express the PET reporter gene (PRG) HSV1-tk. (4) [^18F]FHBG is approved by the FDA as an investigational new drug (IND #61,880) for PET imaging at UCLA and Stanford University nuclear medicine clinics. UCLA's medical internal review board (M-IRB) has approved [^18F]FHBG PET imaging in normal volunteers, glioma patients and glioma patients who are enrolled in adoptive cellular gene therapy, when the infused cells express the PRG HSV1-tk. Stanford University's M-IRB has approved [^18F]FHBG PET imaging in glioma patients. COHNMC's M-IRB has approved referral of the patient's enrolled in the CTL therapy study for [^18F]FHBG PET imaging at UCLA.
254.62 MBq (6.88 mCi) [^18F]FHBG was injected through the other iv line (FDA limit 7 mCi). At approximately two-hours and fifteen minutes after [^18F]FHBG injection, the whole-body PET emission scan started from the patient's head to bottom, using an ECAT EXACT HR+PET scanner (CTI/Siemens, Inc., Knoxville, Tenn.). The whole-body scan consisted of 7 bed positions (7-minutes each). Three minute transmission scans followed each 7 minute emission scans. A two bed position head scan immediately followed completion of the whole-body scan. […] In addition, enhanced [^18F]FHBG accumulation was observed near the patient's corpus callosum. This indicates trafficking of infused CTLs to the remote corpus callosum tumor. The level of [^18F]FHBG accumulation is greater than what has been observed in control GBM patients who had tumor resections or intact tumors. Table 1 (FIG. 6) includes quantitative data of tumor to background ratios, comparing [^18F]FHBG accumulation levels of the CTL infused patient described in this example and control patients. Relative to similar controls, [^18F]FHBG accumulation is 2.6× higher in the patient's tumor resection site and 2.8× higher in the remote corpus callosum tumor site. […] Finally, a stereotactic biopsy of the left sided corpus callosum within a week of the [^18F]FHBG PET scan confirmed the presence of malignant disease infiltrated with CD8+ T cells.

[2] = in vivo, iv
From the text: Two coronal slices are shown to illustrate activity within the liver, gall-bladder, intestines, kidneys and bladder, which are organs involved with [^18F]FHBG's clearance from the body.

For `Nc1nc(O)c2ncn(COC(CO)CO)c2n1` [Ganciclovir], the “Ganciclovir induced cell death of CTLs” value (HSV1-tk expressing CTLs) was “susceptibility to Ganciclovir induced cell death”.

In the case of [^3H]Penciclovir, the “[3H]PCV uptake into CTL clone relative to control cells” value (HSV1-TK; 1 h) is reported as 2.7 ×, the “[3H]PCV uptake into CTL clone relative to control cells” value (HSV1-TK; 1 h, listed as [^3H]PCV) is reported as “approximately 3 ×” and the “[3H]PCV uptake into CTL clone relative to control cells” value (HSV1-TK; 4 h) is reported as 9.3 ×. For the same molecule, the “[3H]PCV uptake into CTL clone relative to control cells” value (HSV1-TK; 4 h, listed as [^3H]PCV) was about 9 ×.

With `Nc1nc2c(ncn2CCC(CO)C[18F])c(=O)[nH]1` (stereo not drawn) [[^18F]FHBG, 9-[4-[^18F]fluoro-3-(hydroxymethyl)butyl]guanine] the “tumor 2/meninges [18F]FHBG activity ratio” value ([1]; CTL infused patient, non-resected tumor near corpus callosum, images approximately two hours after injection) was 1.57, the “tumor 1/meninges [18F]FHBG activity ratio” value ([1]; CTL infused patient, surgically resected tumor site, images approximately two hours after injection) was 1.75 and the “[18F]FHBG accumulation versus background” value ([1]; CTL infusion sites and intact tumor) was 2-3 ×. The “average intact tumor site to meninges [18F]FHBG activity ratio” value ([1]; control patients (no CTLs)) was 0.44, the “average resected tumor site/meninges [18F]FHBG activity ratio” value ([1]; control patients (no CTLs)) was 0.86 and the “[18F]FHBG accumulation relative to similar controls” value ([1]; patient's tumor resection site) was 2.6 ×. For the same molecule, the “[18F]FHBG accumulation relative to similar controls” value ([1]; remote corpus callosum tumor site) was 2.8 ×, the “[18F]FHBG accumulation in the CTL infused patient versus control patients” value ([1]; resection site and intact tumor, quantitative analysis) was “greater than two times higher” and the “clearance from tissues not involved in its clearance” value ([2]; human) was “clears very rapidly”. For the same molecule, the “time of rapid decline in blood concentration following injection” value [2] was 20 to 40 min.
